Entries after “also recorded” stand apart in the source; their conditions may differ. Peptide text beside a SMILES is read from it.
Experiments:
[1] = test system: NMDAR; conditions: cited from earlier work; for side effects: human clinical studies; for Hamilton Depression Rating Score: patients suffering with refractory depression
[2] = test system: healthy young adults; test: fMRI (BOLD) during item category association task, Example 2 (randomized, single-blind, parallel group); format: in vivo, humans; conditions: single IV 5 mg/kg
Source text: We investigated whether a single IV administration of GLYX-13 compared to placebo changed functional activation among healthy young adults performing a learning and memory task while undergoing fMRI.
The inclusion criteria for adult subjects participating in the study were as follows (i) 18-40 years of age; (ii) estimated IQ within what is considered to be the normal range (80-120); and (iii) no personal medical, neurologic, or psychiatric history, or reported history of psychiatric illness among first degree relatives.
After initial (Visit 1), patients were randomized to either single IV administration of GLYX-13 (5 mg/kg) or placebo on subsequent visit (Visit 2). fMRI studies started within 20 minutes post-infusion. Subjects returned approximately one week after Visit 2 to complete behavioral tasks in scanner and assess any adverse effects.
Item Category Association Task (See, e.g., Onur O A, Schlaepfer T E, Kukolja J, Bauer A, Jeung H, Patin A, Otte D-M, Shah N J, Maier W, Kendrick K M, Fink G R, Hurleman R (2010).
The N-methyl-D-aspartate receptor co-agonist D-Cycloserine facilitates declarative learning and hippocampal activity in humans. Biol. Psychiatry, 67, 1205). Subjects were asked to learn arbitrary group membership (A or B) of 3-digit numbers. Visual feedback was provided immediately following choice (button press) to indicate correct item category association. There were eight category memberships to be learned, which were presented over eight cycles (i.e., 7 repetitions) for a total of 64 trials per run; three sets of learning runs (each with different 3-digit number sets. See FIG. 3.
3T TIM Trio system (Siemens Medical Systems) with 32 channel coil. […]

[3] = test system: healthy young adults; test: fMRI (BOLD) during item category association task, Example 1; format: in vivo, humans; conditions: IV-injection of 5 mg
Procedure: GLYX-13 was used to investigate whether this compound changed functional activation in hippocampal and related learning regions healthy young adults.
Twenty-four healthy individuals underwent functional magnetic resonance imaging (fMRI) after randomization to IV-injection of 5 mg of GLYX-13 (n=12) or placebo (n=12). Groups were matched on demographic factors, estimated IQ, and dose volume. While undergoing scanning, subjects performed an item category association task in which they learned over repeated cycles which of two categories a series of numbers were assigned. Change in blood-oxygen level dependent (BOLD) activity was measured during correctly performed trials, and differences in activation between groups were compared across learning cycles.

[4] = test system: NMDAR; conditions: in vivo; cited from earlier work

SMILES | side effects [1] | Hamilton Depression Rating Score [1] | number of identified regions with significant group by cycle interaction effects on extracted mean % signal change ([2]; FIGS. 7A-7F) | behavioral task performance (learning effect across cycle) ([2]; compared with Placebo, FIG. 5) | BOLD activation / extracted mean % signal change vs. Placebo ([2]; correct trials, FIGS. 7A-7F, 5 mg/kg) | regions in which Placebo demonstrated greater activation compared to GLYX-13 [3] | BOLD activation over learning cycles compared to Placebo ([3]; n=12 per group, correctly performed trials, hippocampus, parahippocampal gyrus, amygdala, superior temporal, middle frontal, inferior frontal gyri) | task accuracy over successive cycles ([3]; both groups (GLYX-13 and placebo)) | antidepressant activity [4] | nootropic, neuroprotective, antinociceptive and cognitive activity [4] | psychotomimetic side effects [4]
C[C@@H]([C@@H](O)c1ccc(O)cc1)N1CCC(O)(c2ccccc2)CC1 [CPC-101.606] | severe | significant reductions | – | – | – | – | – | – | – | – | –
C[C@@H](O)[C@H](N)C(=O)N1CCC[C@H]1C(=O)N1CCC[C@H]1C(=O)N[C@H](C(N)=O)[C@@H](C)O [GLYX-13, L-threonyl-L-prolyl-L-prolyl-L-threonine amide] (H-TPPT-NH2) | – | – | six | robust and comparable learning effect across cycle | enhanced activation; also recorded: enhanced BOLD signal change | no regions | enhanced activation over learning cycles in several learning and memory regions | increased task accuracy over successive cycles | rapid-acting, robust, and sustained antidepressant activity | exhibits nootropic, neuroprotective and antinociceptive activity, and enhances learning, memory and cognition in vivo | lack the pyschotomimetic side effects
CNC1(c2ccccc2Cl)CCCCC1=O (stereo not shown) [ketamine] | severe | significant reductions | – | – | – | – | – | – | – | – | –

From US20160345855A1, “METHODS OF TREATING BRAIN DISORDERS OR IDENTIFYING BIOMARKERS RELATED THERETO” (NORTHWESTERN UNIVERSITY, priority 2013, published 2016)
